The source of these data is ChEMBL document CHEMBL1135178, “Photo-oxygenation of geraniol: synthesis of a novel series of hydroxy-functionalized anti-malarial 1,2,4-trioxanes” (2002).

≈ marks a conversion by molar mass, not a printed value.

The subject of one test is Plasmodium falciparum. As to the kind of experiment: Antimalarial activity against Plasmodium falciparum NF54. Format: functional.
Test [1] concerns Mus musculus. As to the kind of experiment: Total number of mice protected out of the 5 tested at a dose of 24 mg/kg/day (Observation till day 10 post-infection). Format: functional.
In test [2] the test system is Mus musculus. As to the kind of experiment: Total number of mice protected out of the 5 tested at a dose of 48 mg/kg/day (Observation till day 10 post-infection). Format: functional.
Test [3] deals with Mus musculus. As to the kind of experiment: Total number of mice protected out of the 5 tested at a dose of 96 mg/kg/day (Observation till day 10 post-infection). Format: functional.
Test [4] has as its system Mus musculus. As to the kind of experiment: The compound was tested in vivo antimalarial response against multidrug-resistant Plasmodium yoelii in Swiss mice (Mus musculus) at a dose of 48 (mg/kg/day) after 7 days. Format: functional.
Test [5] concerns Mus musculus. As to the kind of experiment: The compound was tested in vivo antimalarial response against multidrug-resistant Plasmodium yoelii in Swiss mice (Mus musculus) at a dose of 24 (mg/kg/day) after 4 days. Format: functional.
Test [6] deals with Mus musculus. As to the kind of experiment: The compound was tested in vivo antimalarial response against multidrug-resistant Plasmodium yoelii in Swiss mice (Mus musculus) at a dose of 24 (mg/kg/day) after 7 days. Format: functional.
Test [7] relates to Mus musculus. As to the kind of experiment: The compound was tested in vivo antimalarial response against multidrug-resistant Plasmodium yoelii in Swiss mice (Mus musculus) at a dose of 24 mg/kg/day after 10 days. Format: functional.
Test [8] has as its system Mus musculus. As to the kind of experiment: The compound was tested in vivo antimalarial response against multidrug-resistant Plasmodium yoelii in Swiss mice (Mus musculus) at a dose of 96 (mg/kg/day) after 10 days. Format: functional, organism-based.
For test [9], the system named is Mus musculus. As to the kind of experiment: The compound was tested in vivo antimalarial response against multidrug-resistant Plasmodium yoelii in Swiss mice (Mus musculus) at a dose of 96 (mg/kg/day) after 4 day. Format: functional, organism-based.
The subject of test [10] is Mus musculus. As to the kind of experiment: The compound was tested in vivo antimalarial response against multidrug-resistant Plasmodium yoelii in Swiss mice (Mus musculus) at a dose of 96 (mg/kg/day) after 7 days. Format: functional, organism-based.
The test system of test [11] is Mus musculus. As to the kind of experiment: The compound was tested in vivo antimalarial response against multidrug-resistant Plasmodium yoelii in Swiss mice (Mus musculus) at a dose of 48 (mg/kg/day) after 10 days. Format: functional.
In test [12] the test system is Mus musculus. As to the kind of experiment: (§1) The compound was tested in vivo antimalarial response against multidrug-resistant Plasmodium yoelii in Swiss mice (Mus musculus) at a dose of 48 (mg/kg/day) after 4 day. Format: functional, organism-based.
Test [13] concerns Mus musculus. The description is as §1. Format: functional.

Take `C=C(C)C(O)CCC(=C)C1COC2(CCCCC2)OO1` (stereo unspecified): it took 0.125 µg/mL (≈ 0.443 µM) to inhibit growth against Plasmodium falciparum (MIC).

In the test with Plasmodium falciparum, `C=C(CCCO)C1COC2(OO1)C1CC3CC(C1)CC2C3` (stereo unspecified) gave an MIC of 0.125 µg/mL (≈ 0.425 µM).

In turn, `C=C(C)C(O)CCC(=C)C1COC2(CCCC2)OO1` (stereo unspecified) had an MIC with Plasmodium falciparum of 0.125 µg/mL (≈ 0.466 µM).

Take `C=C(CCCO)C1COC2(CCCCC2)OO1` (stereo unspecified): the minimum inhibitory concentration (MIC) with Plasmodium falciparum was determined as 1 µg/mL (≈ 4.13 µM).

`C=C(C)C(O)CCC(=C)C1COC2(OO1)C1CC3CC(C1)CC2C3` (stereo unspecified): the results for the “No. of mice protected” value with Mus musculus [1], in the test with Mus musculus [2] and in the test on Mus musculus [3] were 2, 4 and 5, respectively. The Parasitemia in the test on Mus musculus [4] is 2.04%; with Mus musculus [5], 2.42%; in the test on Mus musculus [6], 13.38%; in the test on Mus musculus [7], 28.4%; in the test on Mus musculus [8], “Nil”; with Mus musculus [9], “Nil”. Moreover, the Parasitemia entry in the test with Mus musculus [10] is given as “Nil”; in the test on Mus musculus [11], 10.5%; in the test with Mus musculus [12], “Nil”. For the same molecule, the minimum inhibitory concentration (MIC) in the test on Plasmodium falciparum turned out to be 0.031 µg/mL (≈ 0.0927 µM).

Take `C[C@@H]1CC[C@H]2[C@@H](C)C(=O)O[C@@H]3O[C@@]4(C)CC[C@@H]1[C@]32OO4` [ARTEMISININ]: in the test with Plasmodium falciparum, the MIC is 0.031 µg/mL (≈ 0.11 µM).

The molecule `C=C(CCCO)C1COC2(CCCC2)OO1` (stereo unspecified) came in with an MIC against Plasmodium falciparum of 0.25 µg/mL (≈ 1.1 µM).

The molecule `C=C(C)C(O)CCC(=C)C1COC(C)(C)OO1` (stereo unspecified) showed an MIC in the test with Plasmodium falciparum of 0.5 µg/mL (≈ 2.06 µM).

Consider `CCN(CC)CCCC(C)Nc1ccnc2cc(Cl)ccc12` (stereo unspecified) [CHLOROQUINE], for which, in the test with Mus musculus [2], the “No. of mice protected” value came out at 3. The Parasitemia was found to be 17.6% in the test on Mus musculus [4], 32.74% in the test on Mus musculus [11] and 1.53% with Mus musculus [13]. The same molecule gave an MIC with Plasmodium falciparum of 0.04 µg/mL (≈ 0.125 µM).

In the case of `C=C(CCCO)C1COC(C)(C)OO1` (stereo unspecified), in the test with Plasmodium falciparum, the MIC was 1 µg/mL (≈ 4.94 µM).
